Measurements reported in article PMC12040169 (PLOS Biology, 2025).

Test: in vitro
Details: human, hela cells, % viability

Compound	viability at 28.5 h, 10 µM [%]	viability at 28.5 h, 10 µM (bulk resorufin, single well) [%]
C=CCSC1=N/C(=C\c2ccc(C(=O)O)cc2)C(=O)S1 [CBK265057]	95.7	
Cc1cccc(C(C)(C)C)c1OCCNCCN [CBK265058G]	118	
O=C(NC(=S)Nc1ccc(C(=O)O)c(Cl)c1)c1ccc(-c2ccc(Cl)cc2)o1 [CBK265063]	105	
COc1ccc(C(=O)O)cc1NC(=S)NC(=O)c1ccc(-c2ccccc2)cc1 [CBK265064]	99.5	
CC(=O)Nc1ccccc1NC(=O)COc1ccc(Br)cc1C [CBK265072]	103	
Cc1ncc(CO)c(/C=N/N=C/c2ccc(O)c(O)c2)c1O [CBK265075]	103	
O=C(CN1CCCCCC1)Nc1sc2c(c1C(=O)Nc1ccc(Br)cc1)CCC2 [CBK265076]	109	
Cc1ccc(S(=O)(=O)N/N=C/C=C/c2ccc(N(C)C)cc2)cc1 [CBK265078]	99.7	
CC(=O)Nc1ccc(NC(=O)c2cc(-c3ccc(Cl)cc3Cl)nc3ccccc23)cc1 [CBK265080]	80.8	
OCCNCCOc1ccc(Cl)cc1Br [CBK265083G]	116	
Clc1ccccc1CSc1nnc2c(n1)OC=Nc1ccccc1-2 [CBK265085]	99.1	
O=C(Nc1sc2c(c1C(=O)NCc1ccco1)CCCC2)c1sc2ccccc2c1Cl [CBK265086]	92.1	
COCCNCCOc1c(Cl)cc(C)cc1Br [CBK265087G]	113	
Cc1cc(Cl)c(OCCN2CCC(C)CC2)c(Br)c1 [CBK265088G]	78.3	
Cc1ccc(NC(=O)c2ccccc2OCC(=O)NC23CC4CC(CC(C4)C2)C3)cc1Cl [CBK265091]	101	
COCCCNCCSc1ccc(Cl)cc1 [CBK265093]	95	
Cc1cc(Br)ccc1OCC(=O)O/N=C(\N)Cc1ccc([N+](=O)[O-])cc1 [CBK265095]	99.8	
Cn1c(SCC(=O)Nc2ccccc2[N+](=O)[O-])nc2ccccc2c1=O [CBK265096]	106	
Cc1cc(C(C)(C)C)ccc1OCCNCCN [CBK265097G]	91.3	
Cc1cccc(N2C(=O)c3ccc(C(=O)OC(C(=O)c4ccccc4)c4ccccc4)cc3C2=O)c1 (stereo not drawn) [CBK265098]	88.8	
CCOc1ccc(C(=O)NC(=S)Nc2cccc(C(=O)O)c2C)cc1Br [CBK265100]	93.6	

Compound	viability at 28.5 h, 10 µM [%]	viability at 28.5 h, 10 µM (bulk resorufin, single well) [%]
CC(C)(c1ccccc1)c1ccc(OCCNCCN)cc1 [CBK265102]	103	
CCC(C(=O)NCCCN1CCOCC1)c1ccccc1 (stereo not drawn) [CBK265103]	116	
COc1ccc(C(=O)CSc2nnc(C(O)c3ccccc3)n2-c2ccccc2)cc1 (stereo not drawn) [CBK265104]	109	
COc1ccccc1C(=O)Nc1sc2c(c1C(=O)NCc1ccco1)CCCC2 [CBK265105]	100	
Clc1ccc(SCCOCCN2CCCCC2)cc1 [CBK265108G]	87.3	
Cc1ccc(S(=O)(=O)NC(CC(=O)Nc2ccc(Br)cc2)c2ccccc2)cc1 (stereo not drawn) [CBK265110]	93.3	
Cc1ccc2nc(O)cc(C(=O)OCC(=O)c3cccc([N+](=O)[O-])c3)c2c1 [CBK265115]	94.1	
CCN1C(=O)/C(=C/c2cc3c(cc2Cl)OCO3)NC1=S [CBK265117]	96.5	
CC(C)(C)CC(C)(C)N=C(S)Nc1ccc2nc(-c3ccccn3)c(-c3ccccn3)nc2c1 [CBK265118]	91	
CCOc1ccc(S(=O)(=O)N2CCCCC2)cc1-c1nc2c(C(C)(C)C)nn(C)c2c(=O)[nH]1 [CBK265119]	113	
O=C1CC(Cc2ccccc2)C(=O)N1CCCn1ccnc1 (stereo not drawn) [CBK265123G]	97.4	
C/C(=C\C(=O)Nc1ccc(O)cc1C(=O)O)c1ccccc1 [CBK265125]	115	
CN(CC(=O)NCc1ccccn1)S(=O)(=O)c1ccc(Br)cc1 [CBK265127]	94.4	
Cc1ccc2nc(-c3ccccc3)c(CC(=O)O)c(C(=O)O)c2c1 [CBK265128]	87.3	
O=C1CC(C(=O)Nc2ncccn2)C(c2ccccc2)O1 (stereo not drawn) [CBK265130]	106	
O=C(O)c1ccccc1C(=O)Nc1ccc(Oc2cccc3ccccc23)cc1 [CBK265131]	84.9	
COc1cc(/C=C2\C(=O)NC(=S)N(c3cccc(C)c3C)C2=O)ccc1OC(C)C(=O)O (stereo not drawn) [CBK265132]		98.7
O=C(CCN1C(=O)c2ccc([N+](=O)[O-])cc2C1=O)Nc1ccccc1-c1ccccc1 [CBK265134]	103	
CSCCC(C(=O)O)N1C(=O)c2ccc(C(=O)O)cc2C1=O (stereo not drawn) [CBK265135]	110	
O=C(Nc1cccc([N+](=O)[O-])c1)c1ccc2nc(-c3ccccn3)c(-c3ccccn3)nc2c1 [CBK265137]	101	
CCN1C(=O)/C(=C/c2cc(Br)ccc2OCc2cccc([N+](=O)[O-])c2)NC1=S [CBK265138]	93.6	

Compound	viability at 28.5 h, 10 µM [%]	viability at 28.5 h, 10 µM (bulk resorufin, single well) [%]
COc1cc(/C=C2/NC(=O)N(c3ccccc3)C2=O)ccc1OCc1ccc(C(=O)O)cc1 [CBK265139]	84.6	
Cc1ccc(S(=O)(=O)NCCNc2ccc([N+](=O)[O-])cc2C(F)(F)F)cc1 [CBK265140]	90.6	
Cc1ccc(S(=O)(=O)N(CC(=O)N2CCN(C)CC2)Cc2ccc(Cl)cc2Cl)cc1 [CBK265144]	100	
CCOC(=O)C(C)N1C(=O)S/C(=C/c2cc(C)n(-c3ccncc3)c2C)C1=O (stereo not drawn) [CBK265145]	99.9	
Cc1cccc(/C=C2/SC(=S)N(CC(=O)O)C2=O)n1 [CBK265146]	82.9	
CCCc1cc(O)nc(SCC(=O)Nc2ccc(Cl)cc2Cl)n1 [CBK265147]	83.7	
CCOC(=O)N1CCN(Cn2nc(COc3ccccc3)n(C)c2=S)CC1 [CBK265148]	97.4	
O=C(O)c1cc(NC(=O)c2ccc(NC(=O)c3ccco3)cc2)cc(C(=O)O)c1 [CBK265149]	111	
CCOC(=O)c1ccccc1OC(=O)c1ccc2c(c1)C1C=CCC1C(C(=O)O)N2 (stereo not drawn) [CBK265155]	101	
COc1cc(/C=C2/C(=O)NC(=O)N(c3ccc(C)c(Cl)c3)C2=O)ccc1OC(C)C [CBK265156]		118
Cc1ccc(S(=O)(=O)N(CC(=O)Nc2ccc3c(c2)OCCO3)Cc2ccccc2F)cc1 [CBK265157]	83.3	
O=C(NCCCO)Nc1ccc2nc(-c3ccco3)c(-c3ccco3)nc2c1 [CBK265161]	92.4	
CCOC(=O)C(C)N1C(=O)S/C(=C/c2cc(Cl)c(OCC(=O)O)c(Br)c2)C1=O (stereo not drawn) [CBK265163]	99.9	
Cc1cccc(CN(CC(=O)Nc2ccc(F)cc2F)S(=O)(=O)c2ccc(Cl)cc2)c1 [CBK265164]	84.9	
CCN(CC)CCN1C(=O)C(O)=C(C(=O)c2ccc(Cl)cc2)C1c1cccc(Br)c1 (stereo not drawn) [CBK265165]	112	
CCCCc1cc(=O)oc2cc(OC(C)C(=O)O)c(Cl)cc12 (stereo not drawn) [CBK265166]	95.7	
C/C(=C1/SC(=S)N(c2cccc(C(=O)O)c2)C1=O)c1cccc([N+](=O)[O-])c1 [CBK265168]	100	
CC1CCN(S(=O)(=O)c2ccc(Cl)c(C(=O)Nc3ccc(C(=O)O)cc3)c2)CC1 [CBK265170]	111	
COc1ccc(S(=O)(=O)Nc2ccc(C)cc2)cc1C(=O)Nc1ccc(C)cc1 [CBK265172]	94.7	
COc1ccc([N+](=O)[O-])cc1COc1ccc2c(C(F)(F)F)cc(=O)oc2c1 [CBK265173]	96.4	
NC(=O)C1CCN(C2=NC(=O)/C(=C/c3cn(-c4ccccc4)nc3-c3ccc(F)cc3)S2)CC1 [CBK265175]	106	

Compound	viability at 28.5 h, 10 µM [%]	viability at 28.5 h, 10 µM (bulk resorufin, single well) [%]
COc1ccccc1Oc1ccc(S(=O)(=O)N2CCOCC2)cc1S(=O)(=O)N1CCOCC1 [CBK265176]	97.2	
Cc1ccc(C(=O)C(OC(=O)c2ccc(-c3nnc(-c4ccccc4)o3)cc2)c2ccccc2)cc1 (stereo not drawn) [CBK265177]	82.7	
COc1ccc(-c2nn(-c3ccccc3)cc2/C=C2\SC(N3CCC(C(N)=O)CC3)=NC2=O)cc1 [CBK265178]	105	
NC(=O)C1CCN(C2=NC(=O)/C(=C/c3cn(-c4ccccc4)nc3-c3cccs3)S2)CC1 [CBK265179]	97.3	
CCc1cc(=O)oc2cc(OCC(=O)O)c(Cl)cc12 [CBK265182]	93.9	
O=C(O)c1cccc(NC(=O)c2ccc(S(=O)(=O)N3CCCCC3)cc2)c1 [CBK265185]	86.1	
O=C(O)CCC(=O)Nc1ccc(Br)c2cccnc12 [CBK265186]	105	
O=C1NC(=O)C(=CNCCN2CCN(C(=O)c3ccccc3)CC2)C(=O)N1 [CBK265190]		90.5
O=C(O)CSc1nc2ccc([N+](=O)[O-])cc2[nH]1 [CBK265192]	86.9	
NS(=O)(=O)c1cc(C(=O)OCCNC(=O)c2ccccc2)c(Cl)cc1Cl [CBK265193]	88.9	
Fc1ccccc1CN1CCN(Cc2ccccn2)CC1 [CBK265194G]	100	
O=C1OC(c2ccco2)=N/C1=C/Nc1ccc(C(=O)O)cc1 [CBK265195]	104	
CN1CCN(C(=O)c2cnn(-c3ccccc3)c2NC(=O)c2ccc(F)cc2)CC1 [CBK265198]	88.3	
COc1ccc(Cl)cc1Nc1nc(N)nc(CC(=O)CSc2ccc(C)cc2)n1 [CBK265200]	90.2	
CCOc1ccc2nc(SCc3nc(N)nc(Nc4cccc(Cl)c4C)n3)sc2c1 [CBK265202]	83.1	
O=C(CSc1nnc(-c2cccnc2)n1-c1ccccc1)Nc1ccc(Br)cc1 [CBK265203]	100	
CCOc1ccc2[nH]c(=O)c(/C=C3\SC(=S)N(CCC(=O)O)C3=O)cc2c1 [CBK265213]	89.7	
Cc1ccc(OCC(=O)NC(=S)Nc2cc(-c3nc4ncccc4o3)ccc2Cl)cc1 [CBK265214]	103	
O=C(CN(c1ccc(F)cc1)S(=O)(=O)c1ccccc1)Nc1ccc2c(c1)OCCO2 [CBK265215]	94.8	
Cn1c2c(c(=O)n(C)c1=O)CN(CCN1CCNCC1)CN2 [CBK265218]	104	
COc1ccc(C2N(Cc3ccccc3)CCN2Cc2ccccc2)c(OC)c1OC [CBK265220]	104	
